Eight compounds from patent US6946463B2, “1,2,5,10-tetrahydropyridazino[4,5-b]quinoline-1,10-diones and their use for the treatment of pain” (Astrazeneca AB, priority 2000, dated 2005) can be followed below.

Where a name gives a salt, the structure may show the parent alone. Read-outs that look alike come from different tables or passages of the source.

This test concerns the target T1, NMDA receptor glycine site (Rattus norvegicus, UniProt P35439).
T1 construct: fresh brain tissue including cerebral cortex and hippocampus from male Sprague Dawley rats was homogenized; tissue Analytical Biological Services Inc; host or cells: rat brain membranes (cerebral cortex and hippocampus, male Sprague Dawley rats)
The test is described as follows: Test A: Inhibition of binding of [3H]-MDL105,519 to brain membranes. From the text:
Test A: Inhibition of Binding of [^3H]-MDL105,519:
Binding of compounds to the NMDA receptor glycine site may be assessed by measuring the ability of test compounds to inhibit the binding of tritiated MDL105,519 to brain membranes bearing the receptor.
Briefly, fresh brain tissue including cerebral cortex and hippocampus from male Sprague Dawley rats was homogenized in 0.32 M sucrose and centrifuged at low speed to separate cellular membranes from other cellular components. The membranes were then washed 3 times using deionized water, followed by treatment with 0.04% Triton X-100. Finally, membranes were washed six times in 50 mM Tris citrate buffer, pH 7.4, and frozen at −80° C. until use.
[^3H]MDL105,519 (72 Ci/mmol) was purchased from Amersham. Cold MDL105,519 was purchased from Sigma/RBI. […] On the day of the experiment, brain membranes were thawed at room temperature and suspended in 50 mM tris acetate buffer, pH 7.4 (“TAB”). Seventy-five micro grams per milliliter protein (by using the BioRad dye) were used for competition binding. The experiments were carried out using 96-well plates. […] Non specific binding was determined by using 100 μM of unlabeled MDL105,519. […] After incubation, unbound [^3H]ML105,519 was removed by filtration onto GF/B Unifilter plates using a Packard harvester. Filters were washed four times with ice cold TAB (total of 1.2 mL buffer). The plates were dried overnight at room temperature and bound radioactivity was measured on a Packard TopCount after the addition of 45 μL per well of the MICROSCINT O.
Human Brain Membranes: Human brain membranes were obtained from Analytical Biological Services Inc., and assays were performed as described for rat membranes.
Data analysis: Data was analyzed using a Microsoft Excel spreadsheet and GraphPad Prizm software and potency of compounds is expressed as the Ki (nM).

[1] abbreviates: inhibition of [3H]-MDL105,519 binding to brain membranes, 1.2 nM radioligand, 30 minutes at room temperature.

The compound `O=c1c2ccc(Cl)cc2[nH]c2c(O)nn(C(c3ccccn3)C3CC3)c(=O)c12` (racemic) [Ex. 1, (+/−)-7-Chloro-4-hydroxy-2-(1-cyclopropyl-1-pyrid-2-yl)methyl-1,2,5,10-tetrahydropyridazino[4,5-b]quinoline-1,10-dione] returned a Ki under setting [1] of 0.996 µM.

`O=c1[nH]n(C(c2ccccn2)C2CCCC2)c(=O)c2c(O)c3ccc(Cl)cc3nc12` (racemic) [Ex. 3, (+/−)-7-Chloro-4-hydroxy-2-(1-cyclopentyl-1-pyrid-2-yl)methyl-1,2,5,10-tetrahydropyridazino[4,5-b]quinoline-1,10-dione hydrochloride]: where the note is “inhibition of [3H]-MDL105,519 binding to brain membranes, bound in μM”, the Ki was > 10 µM.

`O=c1c2ccc(Cl)cc2[nH]c2c(O)nn(C(c3ccccc3)c3ccncc3)c(=O)c12` (racemic) [Ex. 4, (+/−)-7-Chloro-4-hydroxy-2-(1-phenyl-1-pyrid-4-yl)methyl-1,2,5,10-tetrahydropyridazino[4,5-b]quinoline-1,10-dione] returned an inhibition constant Ki under setting [1] of 3.69 µM.

`Cc1cnccc1C(C)n1nc(O)c2[nH]c3cc(Cl)ccc3c(=O)c2c1=O` (racemic) [Ex. 5, (+/−)-7-Chloro-4-hydroxy-2-(1-(3-methylpyrid-4-yl))ethyl-1,2,5,10-tetrahydropyridazino[4,5-b]quinoline-1,10-dione] gave a Ki of 0.907 µM.

`Cc1cccnc1C(C)n1nc(O)c2[nH]c3cc(Cl)ccc3c(=O)c2c1=O` (racemic) [Ex. 7, (+/−)-7-Chloro-4-hydroxy-2-(1-methyl(3-methylpyrid-2-yl)methyl)-1,2,5,10-tetrahydropydridazino[4,5-b]quinoline-1,10-dione methanesulfonate]: affinity was put at a Ki of 1.78 µM.

The compound `Cc1cc(C(C)n2nc(O)c3[nH]c4cc(Cl)ccc4c(=O)c3c2=O)ccn1` (racemic) [Ex. 8, (+/−)-7-Chloro-4-hydroxy-2-(1-methyl(2-methylpyrid-4-yl)methyl)-1,2,5,10-tetrahydropyridazino[4,5-b]quinoline-1,10-dione methanesulfonate] had a Ki of 0.228 µM.

The compound `CC(c1cccc[n+]1[O-])n1nc(O)c2[nH]c3cc(Cl)ccc3c(=O)c2c1=O` (racemic) [Ex. 10, (+/−)-7-Chloro-4-hydroxy-2-(1-pyrid-2-yl-N-oxide)ethyl-1,2,5,10-tetrahydropyridazino[4,5-b]quinoline-1,10-dione] showed a Ki of 2.57 µM.

`CC(c1cc[n+]([O-])cc1)n1[nH]c(=O)c2nc3cc(Cl)ccc3c(O)c2c1=O` (racemic) [Ex. 11, (+/−)-7-Chloro-4-hydroxy-2-(1-pyrid-4-yl-N-oxide)ethyl-1,2,5,10-tetrahydrpyridazino[4,5-b]quinoline-1,10-dione] returned a Ki of 2.42 µM.
